Earlier results on 3 molecules are cited in US8197851B2, “Carotenoid composition and method for preparation thereof” (priority 2004, dated 2012).

The structures appear in SMILES notation.

The test system of data set [1] is cell surface molecules that initiate immune response. To be noted: human trials.
Data set [2] deals with natural killer cell (NK) activity. To be noted: elderly men.
The subject of data set [3] is human epidermis (ex vivo). To be noted: topical.
Data set [4] concerns Gap Junctional Communication (GJC). The conditions noted are these: independent of Vitamin A activity or antioxidant actions.
Data set [5] relates to UV light-suppressed immune function (DTH). The conditions noted are these: young and elderly men.
Data set [6] concerns mouse epidermis (in vivo). The conditions noted are these: topical.
The conditions of data set [7]: levels as high as 800 mg.
Data set [8] deals with macular degeneration changes. The conditions noted are these: 80 mg, versus placebo.

`CC1=C(/C=C/C(C)=C/C=C/C(C)=C/C=C/C=C(C)/C=C/C=C(C)/C=C/C2=C(C)CCCC2(C)C)C(C)(C)CCC1` [beta-carotene]: the “expression of cell surface molecules that initiate immune response” value in data set [1] is listed as “stimulated expression of cell surface molecules that initiate immune response”. Also, the “age related decline in natural killer cell (NK) activity” value in data set [2] was “Prevented age related decline in natural killer cell (NK) activity”. In addition, the “increase of epidermal retinyl esters” value in data set [3] is on record as 10 fold; in data set [6] it was 3 fold. Besides, the “increase of GJC” value in data set [4] is “most potent in increasing GJC”. The “UV light-suppressed immune function (DTH)” value in data set [5] is listed as “Prevented UV light-suppressed immune function (DTH)”.

As to `CC(=O)Oc1c(C)c(C)c2c(c1C)CC[C@@](C)(CCC[C@H](C)CCC[C@H](C)CCCC(C)C)O2` (racemic) [dl-alpha tocopheryl acetate], in data set [7], the adverse effects entry is “No adverse effects”.

As for `[Zn]` [zinc], the “retarding macular degeneration changes” value in data set [8] was “significantly better than placebo”.
